Reference: patent publication US8097616B2, “Process for preparation of high-purity meloxicam and meloxicam potassium salt” (Egis Gyogyszergyar Nyilvanosan Mukodo Reszvenytarsasag, priority 2004, dated 2012)

Assay: solubility in water at the acidification pH
Format: physicochemical
Details: acidified until pH 6

solubility in water: almost insoluble
SMILES: Cc1cnc(NC(=O)C2=C(O)c3ccccc3S(=O)(=O)N2C)s1 [meloxicam, 4-hydroxy-2-methyl-N-(5-methyl-2-thiazolyl)-2H-1,2-benzothiazine-3-carboxamide-1,1-dioxide]
